Assay results published in US5472949A, “N^4 -(substituted-oxycarbonyl)-5'-deoxy-5-fluorocytidine compounds, compositions and methods of using same” (Hoffmann-La Roche Inc., priority 1992, dated 1995).

Experiments:
[1] = tested on: monkey liver acylamidase; assay: Susceptibility to monkey liver acylamidase (crude liver extract, 5'-DFCR formed by HPLC); assay type: in vitro ADME; conditions: tetrahydrouridine 0.4 mM, 37° C., 60 min
Experimental: (§1) The N^4 -(substituted-oxycarbonyl)-5'-DFCRs of the invention were incubated with crude extracts of monkey and human liver in the presence of an inhibitor of cytidine deaminase, tetrahydrouridine (0.4 mM) at 37° C. for 60 min. Thereafter, the product 5'-DFCR was separated by HPLC and the enzyme susceptibility was calculated from the amount of the product.

[2] = Toxicity (LD50), oral administration daily for 21 days in mice; conditions: mouse, in vivo
Experimental: The toxicity (LD50) of the representative compounds (Example 13,14, and 17) of the present invention was examined by oral administration daily for 21 days in mice. The representative LD50 values obtained from the experiments were more than 500 mg/kg/day.

[3] = Pharmacokinetic profiles in monkeys (plasma 5'-DFUR after oral administration); assay type: in vivo; conditions: cynomolgous monkeys, metabolite 5'-DFUR in plasma
Experimental: The compounds of formula (I) were orally administered into groups of 2 to 5 cynomolgous monkeys (3-4 kg). At various times after the administration, plasma was taken for determination of blood concentrations of intact molecules and their active metabolite 5'-DFUR. Metabolites in the plasma were separated by HPLC and their concentrations were calculated.

[4] = tested on: colon 26 carcinoma; assay: Antitumor and anticachexia activity against mouse colon 26 carcinoma; assay type: in vivo, Mice (CDF1); conditions: for Serum IAP: IAP = immunosuppressive acidic protein
Experimental: Antitumor activity of a representative compound (Example 13), of the present invention, was measured as follows. Mice (CDF1) were subcutaneously inoculated with colon 26 carcinoma (10^6 cells) on day 0. The compound was administered daily for 7 times from day 21 when the animals became cachectic. One day after the last treatment, tumor weight gain, carcass weight gain, adipose tissue weight, concentrations of glucose and the acute phase reactant IAP (immunosuppressive acidic protein) in the serum were measured.

[5] = tested on: CXF280 Human Colon Carcinoma; assay: Antitumor testing against human colon cancer xenograft CXF280; assay type: in vivo, BALB/c nu/nu mice; parameters: key to Fecal observation: N: normal feces; L: loose passage
Experimental: CXF280 tumor (about 2×2 mm piece) was implanted subcutaneously into BALB/c nu/nu mice (21-22 g) on day 0. When tumor volume became 100 mm^3 on day around 14, the compounds of the invention were orally administered daily for 3 weeks. At one day after the last treatment, tumor volume was calculated.
The percent inhibition of tumor growth given in Table 3 above was calculated from the formula:
% Inhibition ={1-(T-V0)/(C-V0)}×100
V0 =volume of tumor before treatment was started, T=volume of the tumors from the treated group, C=volume of the tumor from the control group.

[6] = tested on: human liver acylamidase; assay: Susceptibility to human liver acylamidase (crude liver extract, 5'-DFCR formed by HPLC); assay type: in vitro ADME; conditions: tetrahydrouridine 0.4 mM, 37° C., 60 min
Experimental: as §1

CCCCCCOC(=O)Nc1nc(=O)n([C@@H]2O[C@H](C)[C@@H](O)[C@H]2O)cc1F [Example 13, 5'-deoxy-5-fluoro-N^4-(hexyloxycarbonyl)cytidine]
Acylamidase activity, Monkey Liver [1]: 47 nmol/mg protein/hr
LD50 at 504 h [2]: > 500 mg/kg
Plasma 5'-DFUR AUC [3]: 1960 ng·h/mL
Adipose tissue wt. ([4]; 0.125 mmol/kg x 7, from day 21): 22 mg
Carcass wt. change ([4]; 0.125 mmol/kg x 7, from day 21): 1.6 g
Serum glucose ([4]; 0.125 mmol/kg x 7, from day 21): 118 mg/dL
Tumor wt. change ([4]; 0.125 mmol/kg x 7, from day 21): 1.24 g
Serum IAP ([4]; 0.125 mmol/kg x 7, from day 21): 1195 µg/mL
Adipose tissue wt. ([4]; 0.25 mmol/kg x 7, from day 21): 42 mg
Carcass wt. change ([4]; 0.25 mmol/kg x 7, from day 21): 3.4 g
Serum glucose ([4]; 0.25 mmol/kg x 7, from day 21): 120 mg/dL
Tumor wt. change ([4]; 0.25 mmol/kg x 7, from day 21): 0.91 g
Serum IAP ([4]; 0.25 mmol/kg x 7, from day 21): 1020 µg/mL
Adipose tissue wt. ([4]; 0.5 mmol/kg x 7, from day 21): 63 mg
Carcass wt. change ([4]; 0.5 mmol/kg x 7, from day 21): 4.2 g
Serum glucose ([4]; 0.5 mmol/kg x 7, from day 21): 147 mg/dL
Tumor wt. change ([4]; 0.5 mmol/kg x 7, from day 21): 0.79 g
Serum IAP ([4]; 0.5 mmol/kg x 7, from day 21): 805 µg/mL
Adipose tissue wt. ([4]; 1 mmol/kg x 7, from day 21): 85 mg
Carcass wt. change ([4]; 1 mmol/kg x 7, from day 21): 5.6 g
Serum glucose ([4]; 1 mmol/kg x 7, from day 21): 127 mg/dL
Tumor wt. change ([4]; 1 mmol/kg x 7, from day 21): 0.006 g
Serum IAP ([4]; 1 mmol/kg x 7, from day 21): 795 µg/mL
cachexia (in words) ([4]; daily for 7 times from day 21): improved cachexia
tumor growth (in words) ([4]; daily for 7 times from day 21): suppressed tumor growth
Fecal observation ([5]; Exp. 1, 1.5 mmol/kg/day x 21, oral): N
inhibition in vivo at 0.13 mmol/kg/day ([5]; Mus musculus, po, Exp. 1, 0.13 mmol/kg/day x 21, oral, read-out: % Growth inhibition): 59%
inhibition in vivo at 0.3 mmol/kg/day ([5]; Mus musculus, po, Exp. 1, 0.3 mmol/kg/day x 21, oral, read-out: % Growth inhibition): 66%
inhibition in vivo at 0.67 mmol/kg/day ([5]; Mus musculus, po, Exp. 1, 0.67 mmol/kg/day x 21, oral, read-out: % Growth inhibition): 79%
inhibition in vivo at 1 mmol/kg/day ([5]; Mus musculus, po, Exp. 1, 1.0 mmol/kg/day x 21, oral, read-out: % Growth inhibition): 91%
inhibition in vivo at 1.5 mmol/kg/day ([5]; Mus musculus, po, Exp. 1, 1.5 mmol/kg/day x 21, oral, read-out: % Growth inhibition): 94%
Acylamidase activity, Human Liver [6]: 220 nmol/mg protein/hr
